Laboratory results published in patent US11187660B2, “Fluorescent probes for monitoring voltage by photo-induced electron transfer” (The Regents of the University of California, priority 2011, dated 2021).
Entries after “also recorded” stand apart in the source; their conditions may differ.

Columns and labels:
[1] = tested on: leech Retzius cell; assay: Optical recording of spontaneous activity in leech ganglia; format: cell-based, Hirudo medicinalis; conditions: sampling at 50 Hz, stained 15 min
Procedure: A more stringent test of the usefulness of the PeT-based VSD is to determine whether it can accurately measure subthreshold activity in heterogeneous preparations. For this test we used leech ganglia, because their neurons have been well studied using both electrophysiological and other VSD recordings (14, 33-35). We isolated a midbody ganglion and stained it with VF2.1.Cl for 15 min at 22° C. (FIG. 13C). Insertion of a sharp electrode (25 MΩ) into a Retzius cell to enabled recording of its spontaneous activity while simultaneously recording the fluorescence signals from the same cell. […] The optically recorded spikes are truncated as a result of undersampling the optical signal; sampling at a higher rate (722 Hz) fully resolved the action potentials, but introduced a significant amount of sampling noise (FIG. 14). Although the action potential was subsampled at just 50 Hz, there is still a reliable transient in the optical trace that indicates the time when an action potential occurs, which is often what is needed.
Isolated midbody ganglia (Ganglia 8-16) were dissected from Hirudo medicinalis and the ventral side was desheathed using standard procedures. […]
Imaging was done with a Cascade 128+ EMCCD camera (Photometrics). […] The fluorescence illumination was from an LED that has its peak excitation wave-length in the excitation range for FITC. […] The data is stored in Matlab-readable files.

[2] = Absorbance and emission spectra in n-octanol; format: physicochemical
Procedure: VF2.4.Cl features an absorbance spectrum with a λmax in octanol (to simulate cellular membranes) centered at 527 nm (ε527=4×10^4 M^−1 cm^−1). Excitation of VF2.4.Cl at 527 nm results in emission centered at 540 nm (Φ=0.23) (FIG. 3).
UV absorbance and fluorescence spectra were recorded on a Cary 3E (Varian) and Fluorolog 2 (Spex) fluorimeter, respectively. Analytical, semi-preparative, and preparative HPLCs were performed on Agilent HPLCs, with Luna C18(2) columns (Phenomenex) using water (solvent A) and acetonitrile (solvent B) with 0.05% TFA as an additive. Low resolution ESI mass spectrometry was performed on an Agilent LC/MSD Trap XCT coupled to an Agilent HPLC. High resolution mass spectra were acquired on a ThermoFisher Orbitrap XL hybrid mass spectrometer. ^1H NMR spectra were collected in CDCl3 or d6-DMSO (Cambridge Isotope Laboratories, Cambridge, Mass.) at 25° C. on a 400 Varian Mercury Plus or Jeol ECA 500 spectrometer at the Department of Chemistry and Biochemistry NMR Facility at the University of California, San Diego. All chemical shifts are reported in the standard δ notation of parts per million using the peak of residual proton signals of CDCl3 or d6-DMSO as an internal reference.

[3] = tested on: HEK cells; assay: Speed of optical response to voltage steps in HEK cells; format: cell-based, human; conditions: 100 mV step from holding potential −60 mV
Description: Membrane voltage of cells loaded with VF1.4.Cl or VF2.4.Cl were controlled by making tight-seal whole-cell recordings. Cells were maintained at a holding potential of −60 mV and stepped for 50 ms to various depolarizing and hyperpolarizing potentials (FIG. 5A), while simultaneously acquiring epifluorescence images. For both sensors, depolarizing steps result in fluorescence increases while hyperpolarizing steps decrease fluorescence intensity, in keeping with our proposed mechanism. […] For di-4-ANEPPS, typical values are 0.08-0.12% per mV. […] To assess the speed of the optical response to voltage, VF2.4.Cl signals were monitored in response to voltage steps of 100 mV from a holding potential of −60 mV.
We characterized the voltage sensitivity of all three indicators by making tight-seal whole-cell recordings of HEK293 cells stained with the VF sensors. […] For all three dyes, depolarizing steps produced fluorescence increases, whereas hyperpolarizing steps produced fluorescence decreases, in keeping with the proposed PeT mechanism. The fluorescence response is linear over the range of −100 mV to +100 mV (FIG. 9C), with voltage sensitivities ΔF/F per 100 mV of 20±1% for VF1.4.Cl and 25±1% for VF2.4.Cl. […]

Row | SMILES | optical recording versus electrical recording of spontaneous activity [1] | absorbance λmax [2] | Φ [2] | ε527 [2] | emission centered at ([2]; excitation at 527 nm) | τoff, optical [3] | τon, optical [3]
1 | CN(C)c1ccc(/C=C/c2ccc(/C=C/c3ccc(-c4c5cc(Cl)c(=O)cc-5oc5cc(O)c(Cl)cc45)c(S(=O)(=O)O)c3)cc2)cc1 [VF2.1.Cl, 5-(4-(4-(dimethyllamino)styryl)styryl)-2-(2,7-dichloro-6-hydroxy-3-oxo-3H-xanthen-9-yl)benzenesulfonic acid] | near-perfect matching of the subthreshold membrane potential; also recorded: faithfully followed the subthreshold fluctuations | – | – | – | – | – | –
2 | CCCCN(CCCC)c1ccc(/C=C/c2ccc(/C=C/c3ccc(-c4c5cc(Cl)c(=O)cc-5oc5cc(O)c(Cl)cc45)c(S(=O)(=O)O)c3)cc2)cc1 [VF2.4.Cl, 5-(4-(4-(dibutylamino)styryl)styryl)-2-(2,7-dichloro-6-hydroxy-3-oxo-3H-xanthen-9-yl)benzenesulfonic acid] | – | 527 nm | 0.23 | 40000 M⁻¹ cm⁻¹ | 540 nm | 147±19 μs | 138±14 μs
